Measured values reported in ChEMBL document CHEMBL5370611, “Discovery of 4,5,6,7-Tetrahydropyrazolo[1.5-a]pyrizine Derivatives as Core Protein Allosteric Modulators (CpAMs) for the Inhibition of Hepatitis B Virus” (J Med Chem, 2023).
pEC50: −log10 of the molar value. ≈ marks a conversion by molar mass, not a printed value. Calls of active or inactive are those of the source. No cut-off for these calls is given here.

Assays:
[1] = Cytotoxicity against human HepDE19 cells assessed as reduction in cell viability measured after 5 days by CCK-8 method; format: functional; conditions: HepDE19, 120 h, time 5 day
[2] = Lyophilization solubility of the compound in phosphate buffer at pH 6.5 incubated for 1 hr under stirring condition and 2 hrs under shaking condition by HPLC-UV analysis; format: physicochemical
[3] = Metabolic stability in human liver microsomes assessed as clearance at 1 uM preincubated for 10 mins and measured upto 30 mins in presence of NADPH generating system by LC-MS/MS analysis; format: ADME, Microsome; conditions: time < 40 min
Hepatitis B virus [4] = assay: Antiviral activity against HBV infected in human HepG2.2.15 cells assessed as reduction in HBV DNA replication measured after 5 days by qPCR analysis; format: functional, organism-based; conditions: HepG2.2.15, 120 h
[5] = Metabolic stability in mouse liver microsomes assessed as clearance at 1 uM preincubated for 10 mins and measured upto 30 mins in presence of NADPH generating system by LC-MS/MS analysis; format: ADME, Microsome; conditions: time < 40 min
[6] = Selectivity index, ratio of CC50 for human HepDE19 cells assessed as reduction in cell viability to EC50 for HBV infected in human HepG2.2.15 cells assessed as reduction in HBV DNA replication; format: toxicity, cell-based; conditions: HBV-infected HepG2.2.15 cells (EC50)
[7] = Resistance index, ratio of EC50 for wild type Hepatitis B virus to EC50 for Hepatitis B virus harboring A181T transfected in human HepG2 cells measured after 6 days by qPCR analysis; format: functional; conditions: time 6 day
[8] = Resistance index, ratio of EC50 for wild type Hepatitis B virus to EC50 for Hepatitis B virus harboring N236T transfected in human HepG2 cells measured after 6 days by qPCR analysis; format: functional; conditions: time 6 day
[9] = Resistance index, ratio of EC50 for wild type Hepatitis B virus to EC50 for Hepatitis B virus harboring A181V transfected in human HepG2 cells measured after 6 days by qPCR analysis; format: functional; conditions: time 6 day
Hepatitis B virus [10] = assay: Inhibition of HBV Cp150 dimer assembly assessed as formation of large abnormal particles at 20 uM incubated for 2 hrs by transmission electron microscopy

Row | SMILES | CC50 [1] | solubility at 3 h [2] | CLhep predicted at 1 µM [3] | pEC50 (Hepatitis B virus [4]) | CLhep predicted at 1 µM [5] | selectivity ratio [6] | Ratio EC50 [7] | Ratio EC50 [8] | Ratio EC50 [9] | Activity (Hepatitis B virus [10])
1 | O=C(Nc1ccccn1)N1CCn2ncc(-c3ccc(F)cc3)c2C1 | > 100 µM | 2 µg/mL (≈ 5.93 µM) | 1.02 L/h/kg | < 5.00 | 4.8 L/h/kg |  |  |  |  | 
2 | CN(C(=O)N1CCn2ncc(-c3ccc(F)cc3)c2C1)c1ccccc1 | 93 µM |  |  | 5.66 |  | 42 |  |  |  | 
3 | O=C(Nc1ccccc1Cl)N1CCn2ncc(-c3ccc(F)cc3)c2C1 | > 100 µM |  |  | < 5.00 |  |  |  |  |  | 
4 | C[C@@H]1[C@H](C)N(C(=O)Nc2cc(F)c(F)c(F)c2)Cc2c(N3CCCC3=O)cnn21 | > 100 µM | 515 µg/mL (≈ 1260 µM) | 0.522 L/h/kg | 7.40 | 2.7 L/h/kg | > 2500 |  |  |  | 
5 | Cc1cc(NC(=O)N2CCn3ncc(-c4ccc(F)cc4)c3C2)ccc1F | 26 µM |  | 0.96 L/h/kg | 7.49 | 4.08 L/h/kg | 830 |  |  |  | 
6 | C[C@H]1[C@H](C)n2ncc(N3CCCC3=O)c2CN1C(=O)Nc1cc(F)c(F)c(F)c1 | > 100 µM | 525 µg/mL (≈ 1290 µM) | 0.9 L/h/kg | 7.28 | 4.38 L/h/kg | > 1920 |  |  |  | 
7 | O=C(Nc1cccc(Cl)c1)N1CCn2ncc(-c3ccc(F)cc3)c2C1 | 87 µM | < 1 µg/mL | 1.08 L/h/kg | 6.51 | 4.26 L/h/kg | 284 |  |  |  | 
8 | CCCc1cccc(NC(=O)N2CCn3ncc(-c4ccc(F)cc4)c3C2)c1 | 13 µM | 4.4 µg/mL (≈ 11.6 µM) |  | 5.57 |  | 5 |  |  |  | 
9 | CCc1cccc(NC(=O)N2CCn3ncc(-c4ccc(F)cc4)c3C2)c1 | 55 µM |  |  | 6.61 |  | 220 |  |  |  | 
10 | O=C(Nc1ccc(F)c(Cl)c1)N1CCn2ncc(-c3ccccc3F)c2C1 | 16 µM | < 1 µg/mL | 1.14 L/h/kg | 7.48 | 4.44 L/h/kg | 476 |  |  |  | 
11 | O=C(NCc1ccccc1)N1CCn2ncc(-c3ccc(F)cc3)c2C1 | 91 µM |  |  | 5.84 |  | 63 |  |  |  | 
12 | O=C(Nc1ccc(F)c(Cl)c1)N1CCn2ncc(N3CCCC3=O)c2C1 | > 100 µM | 160 µg/mL (≈ 423 µM) | 0.468 L/h/kg | 7.28 | 3.9 L/h/kg | > 1930 |  |  |  | 
13 | O=C(c1ccccc1)N1CCn2ncc(-c3ccc(F)cc3)c2C1 |  |  |  | 5.42 |  |  |  |  |  | 
14 | C[C@@H]1Cn2ncc(-c3ccc(F)cc3)c2CN1C(=O)Nc1ccc(F)c(Cl)c1 | 26 µM | < 1 µg/mL |  | 6.95 |  | 234 |  |  |  | 
15 | O=C(Nc1cccnc1)N1CCn2ncc(-c3ccc(F)cc3)c2C1 | > 100 µM | 98 µg/mL (≈ 290 µM) | 0.36 L/h/kg | 5.52 | 2.94 L/h/kg | > 33 |  |  |  | 
16 | C[C@H]1Cn2ncc(N3CCOCC3=O)c2CN1C(=O)Nc1cc(F)c(F)c(F)c1 | > 100 µM | 415 µg/mL (≈ 1010 µM) | 0.372 L/h/kg | 7.20 | 1.74 L/h/kg | > 1590 |  |  |  | 
17 | O=C(Nc1cc(F)cc(F)c1)N1CCn2ncc(-c3ccc(F)cc3)c2C1 | 11 µM |  |  | 6.66 |  | 49 |  |  |  | 
18 | O=C(Nc1ccccc1)N1CCn2ncc(-c3ccc(F)cc3)c2C1 | 66 µM | 3 µg/mL (≈ 8.92 µM) | 1.02 L/h/kg | 6.49 | 4.56 L/h/kg | 204 |  |  |  | 
19 | O=C(Nc1ccc(F)c(Cl)c1)N1CCn2ncc(-c3ccc(F)cn3)c2C1 | 35 µM | < 1 µg/mL | 0.96 L/h/kg | 6.96 | 4.8 L/h/kg | 320 |  |  |  | 
20 | O=C(Nc1ccc(F)c(F)c1)N1CCn2ncc(-c3ccc(F)cc3)c2C1 | 34 µM |  | 0.96 L/h/kg | 6.81 | 3.9 L/h/kg | 222 |  |  |  | 
21 | O=C(Nc1ccc(F)c(Cl)c1)N1CCn2ncc(-c3ncc(F)cn3)c2C1 | 32 µM | 6 µg/mL (≈ 15.4 µM) | 0.84 L/h/kg | 6.89 | 4.14 L/h/kg | 250 |  |  |  | 
22 | O=C(Nc1cc(F)c(F)c(F)c1)N1CCn2ncc(N3CCCC3=O)c2C1 | 26 µM | 150 µg/mL (≈ 395 µM) | 0.372 L/h/kg | 6.60 | 3.06 L/h/kg | 101 |  |  |  | 
23 | O=C(Nc1ccc(Cl)cc1)N1CCn2ncc(-c3ccc(F)cc3)c2C1 | 29 µM |  |  | 6.44 |  | 79 |  |  |  | 

Row | SMILES | CC50 [1] | solubility at 3 h [2] | CLhep predicted at 1 µM [3] | pEC50 (Hepatitis B virus [4]) | CLhep predicted at 1 µM [5] | selectivity ratio [6] | Ratio EC50 [7] | Ratio EC50 [8] | Ratio EC50 [9] | Activity (Hepatitis B virus [10])
24 | O=C(Nc1cccnn1)N1CCn2ncc(-c3ccc(F)cc3)c2C1 | > 100 µM | 2 µg/mL (≈ 5.91 µM) | 0.42 L/h/kg | < 5.00 | 2.04 L/h/kg |  |  |  |  | 
25 | O=C(Nc1ccccc1F)N1CCn2ncc(-c3ccc(F)cc3)c2C1 | 12 µM |  |  | 6.03 |  | 13 |  |  |  | 
26 | O=C(NC1CCCC1)N1CCn2ncc(-c3ccc(F)cc3)c2C1 | > 100 µM |  |  | 5.73 |  | > 54 |  |  |  | 
27 | O=C(Nc1ccccc1)N1CCn2cnc(-c3ccc(F)cc3)c2C1 | > 100 µM | < 1 µg/mL | 0.84 L/h/kg | 6.54 | 4.56 L/h/kg | > 349 |  |  |  | 
28 | Nc1ncnc2c1ncn2CCOCP(=O)(O)O [ADEFOVIR] |  |  |  |  |  |  | 2.2 | 2.5 | 1.6 | 
29 | O=C(Nc1ccccc1)N1CCc2[nH]nc(-c3ccc(F)cc3)c2C1 | 59 µM | 5 µg/mL (≈ 14.9 µM) | 1.26 L/h/kg | 6.42 | 3.78 L/h/kg | 156 |  |  |  | 
30 | O=C(Nc1ccc(F)c(Cl)c1)N1CCn2ncc(NC3CCCC3)c2C1 | > 100 µM | < 1 µg/mL | 1.14 L/h/kg | 5.64 | 4.56 L/h/kg | > 43 |  |  |  | 
31 | O=C(Nc1ccc(F)c(Cl)c1)N1CCn2ncc(-c3ccc(F)cc3F)c2C1 | 42 µM | < 1 µg/mL | 1.02 L/h/kg | 7.44 | 3.96 L/h/kg | 1180 |  |  |  | 
32 | C[C@H]1Cn2ncc(-c3ccc(F)cc3)c2CN1C(=O)Nc1ccc(F)c(Cl)c1 | 26 µM | < 1 µg/mL |  | 7.92 |  | 2170 |  |  |  | 
33 | O=C(Nc1ccc(F)c(Cl)c1)N1CCn2ncc(N3CCCC3)c2C1 | 97 µM | 134 µg/mL (≈ 368 µM) | 0.96 L/h/kg | 6.66 | 4.74 L/h/kg | 440 |  |  |  | 
34 | C[C@H]1CN(C(=O)Nc2ccc(F)c(Cl)c2)Cc2c(-c3ccc(F)cc3)cnn21 | 28 µM |  |  | 6.88 |  | 210 |  |  |  | 
35 | C[C@@H]1CN(C(=O)Nc2ccc(F)c(Cl)c2)Cc2c(-c3ccc(F)cc3)cnn21 | 97 µM |  |  | 7.43 |  | 2620 |  |  |  | 
36 | CC1c2c(-c3ccc(F)cc3)cnn2CCN1C(=O)Nc1ccccc1 (stereo unspecified) | 45 µM | < 1 µg/mL |  | 5.73 |  | 24 |  |  |  | 
37 | O=C(Nc1cc(F)c(F)c(F)c1)N1CCn2ncc(-c3ccc(F)cc3)c2C1 | 31 µM |  | 0.96 L/h/kg | 6.41 | 3.78 L/h/kg | 80 |  |  |  | 
38 | Cc1cccc(NC(=O)N2CCn3ncc(-c4ccc(F)cc4)c3C2)c1 | 88 µM |  |  | 6.88 |  | 672 |  |  |  | 
39 | O=C(Nc1ccc(F)c(Cl)c1)N1CCn2ncc(N3CCOCC3=O)c2C1 | > 100 µM | 158 µg/mL (≈ 401 µM) | 0.372 L/h/kg | 6.81 | 1.2 L/h/kg | > 645 |  |  |  | 
40 | O=C(Cc1ccccc1)N1CCn2ncc(-c3ccc(F)cc3)c2C1 | > 100 µM |  |  | 5.50 |  | > 32 |  |  |  | 
41 | O=C(Nc1ccccc1)N1CCn2nnc(-c3ccc(F)cc3)c2C1 | > 100 µM | 32 µg/mL (≈ 94.9 µM) | 0.84 L/h/kg | 6.39 | 5.22 L/h/kg | > 243 |  |  |  | 
42 | O=C(Nc1ccc(Cl)c(F)c1)N1CCn2ncc(-c3ccc(F)cc3)c2C1 | 31 µM |  | 0.9 L/h/kg | 7.15 | 3.6 L/h/kg | 443 |  |  |  | inactive
43 | Cc1ccc(NC(=O)N2CCn3ncc(-c4ccc(F)cc4)c3C2)cc1 | 34 µM |  |  | 5.92 |  | 28 |  |  |  | 
44 | O=C(Nc1cccc(F)c1)N1CCn2ncc(-c3ccc(F)cc3)c2C1 | 32 µM |  |  | 6.38 |  | 76 |  |  |  | 
45 | O=C(Nc1ccc(F)c(Cl)c1)N1CCn2ncc(N3CCOCC3)c2C1 | > 100 µM | 170 µg/mL (≈ 448 µM) | 0.432 L/h/kg | 6.58 | 2.04 L/h/kg | > 376 |  |  |  | 
